In patent US9295676B2, “Mutation mimicking compounds that bind to the kinase domain of EGFR” (The Trustees Of The University of Pennsylvania, priority 2011, dated 2016):

Key:
NCI-H1666 cells = experiment: Apoptosis by annexin V staining and FACS, wild-type EGFR cells; type: cell-based; conditions: wild-type EGFR cell line, 1 μM Tarceva® + 1 μM compound, 48 hrs
Procedure: Apoptosis was analyzed by FACS analysis after Annexin V staining and propidium iodide staining of DNA, and by Western blotting tracking caspase cascade activation. […] The cell lysates were subjected to Western blotting with anti-caspase-8, anti-caspase-3, anti-caspase-9 and anti-PARP antibodies to detect cleavage. NCI-H1650 and H3255 cells expressing mutant EGFR were used as a positive control in the apoptosis studies.

wild type human EGFR = molecular target: T1, wild type human EGFR (Homo sapiens, UniProt P00533); experiment: Western blot of EGFR phosphorylation in NE91 cells (FIG. 6A); type: cell-based
T1 construct: expressed in transfected cells; host or cells: NE91 (mouse fibroblasts)
Procedure: (§1) Total EGFR levels were measured as a control.
Studies measuring total EGFR phosphorylation and phosphorylation of different tyrosines, cell lines NE91, NCI-H1666 and A549 expressing wild type EGFR were treated with the target compounds for 3 hours followed by either induction with 50 ng/ml EGF for 15 min or no EGF induction. The cell lysates were subjected to the immunoprecipitation with anti-EGFR antibodies followed by Western blotting with anti-pY99 (total phospho-tyrosine), anti-pY845, anti-pY1045, anti-pY 1068 and/or anti-pY1173 antibodies.

L858R EGFR = molecular target: T2, L858R EGFR (Homo sapiens, UniProt P00533, L858R); experiment: Western blot of EGFR phosphorylation in mouse fibroblasts expressing L858R EGFR (FIG. 6B); type: cell-based
T2 construct: expressed in transfected cells; host or cells: mouse fibroblasts
Procedure: as §1
That is, while the binding affinity of the compounds tested in non-mutated EGFR defined by the cavity described above (and when Leu is present in the 858 position), when the single mutation is introduced such that Leu-858 is replaced by Arg-858—the binding affinity drops dramatically. […] Accordingly, MMCs may be characterized as having a higher binding constant (lower dissociation constant) for non-mutated vs. L858R mutated EGFR.

NE91 cells = experiment: Anchorage independent growth, soft agar colony formation; type: cell-based, mouse
Procedure: Studies on the effects of the target compounds on anchorage-independent growth of tumor cells used four different cell lines, A549, Calu-3, NE91 and T6-17, which have different levels of EGFR molecules on the cell surface. […] Cells were analyzed for their effects on anchorage-independent growth using soft agar assays described previously in Qian, et al., “Inhibition of p185neu kinase activity and cellular transformation of co-expression of a truncated neu protein,” Oncogene, 13: 2149-2157 (1996). The cells were plated in triplicate in 0.4% agar-HBBS and allowed to grow for 2 to 3 weeks. The cells will be fed with 0.5 ml media containing compounds on the day after plating and once a week thereafter. The colonies were stained with the HBSS solution containing 1 mg/ml of P-iodonitrotetrazolium violet (2-[4-iodophenyl]-3-[4-nitrophenyl]-5-phenyltetrazolium chloride). The number of the colonies formed were counted.

AsPC1 pancreatic tumors = experiment: In vivo tumor growth in mice with AsPC1 pancreatic tumors; conditions: for effect on tumor growth, single agent: 15 mg/kg, FIG. 10
Source text: FIG. 10 graphically represents the results of in vivo testing of EEO3 (A) and EEO4 (B) in mice with AsPC1 tumors.

receptor phosphorylation (wild type human EGFR; compound alone, track 3) | total EGFR levels (wild type human EGFR; in the presence of the compound) | activation of EGFR phosphorylation (L858R EGFR; cell line expressing mutant EGFR, compound alone, FIG. 6B lanes 1 and 2) | enhancement of Tarceva®-induced inhibition of EGFR phosphorylation (L858R EGFR; mutant cell line, FIG. 6B lanes 7 and 8) | Structure (SMILES) | apoptotic activity of Tarceva® in the presence of the MMC (NCI-H1666 cells) | Tarceva®-induced inhibition of EGFR phosphorylation (wild type human EGFR; in combination with Tarceva®, track 4) | inhibitory effect on cell growth in combination with Tarceva® (NE91 cells; 0.25 μM, FIG. 8A) | anchorage independent cell growth, single agent (NE91 cells; compound alone, 0.25 μM, FIG. 8A) | enhancement of the inhibitory effect of Tarceva® on colony formation (NE91 cells; with a low concentration of Tarceva®, 1 nM, FIG. 8B) | effect on tumor growth, single agent (AsPC1 pancreatic tumors) | antitumor effect of the combination with Tarceva® (AsPC1 pancreatic tumors; Tarceva® with 15 mg/kg of EEO3, FIG. 10) | inhibitory effect on colony formation, single agent at low concentration (NE91 cells; low concentration, 1 nM, FIG. 8B)
– | – | – | – | Nc1ccccc1Sc1nc(-c2ccccc2N)ccc1[N+](=O)[O-] [EEN6A] | increased to the level observed with Tarceva® alone in the mutant cell line | – | – | – | – | – | – | –
enhancement of receptor phosphorylation | No changes in total EGFR levels | does not activate EGFR phosphorylation | does not enhance | CC1(C)Cc2cccc(C(=O)N3CCC(O)(c4ccc(Cl)cc4)CC3)c2O1 [EEO3] | – | enhancement of Tarceva®-induced inhibition of EGFR phosphorylation | enhanced the inhibitory effect on cell growth | stimulated cell growth | even more dramatic | weak antitumor effect similar to Tarceva® alone | significant synergistic antitumor effect | –
– | – | – | – | C#Cc1cccc(Nc2ncnc3cc(OCCOC)c(OCCOC)cc23)c1 [Tarceva®, erlotinib, reference compound] | – | – | – | – | – | only a modest effect on tumor growth | – | does not have any inhibitory effect by itself
